The target of test [1] is T1, ERα (Homo sapiens, UniProt P03372).
T1 construct: expressed in transfected cells; host or cells: COS-7
T1 sequence (P03372 1-595): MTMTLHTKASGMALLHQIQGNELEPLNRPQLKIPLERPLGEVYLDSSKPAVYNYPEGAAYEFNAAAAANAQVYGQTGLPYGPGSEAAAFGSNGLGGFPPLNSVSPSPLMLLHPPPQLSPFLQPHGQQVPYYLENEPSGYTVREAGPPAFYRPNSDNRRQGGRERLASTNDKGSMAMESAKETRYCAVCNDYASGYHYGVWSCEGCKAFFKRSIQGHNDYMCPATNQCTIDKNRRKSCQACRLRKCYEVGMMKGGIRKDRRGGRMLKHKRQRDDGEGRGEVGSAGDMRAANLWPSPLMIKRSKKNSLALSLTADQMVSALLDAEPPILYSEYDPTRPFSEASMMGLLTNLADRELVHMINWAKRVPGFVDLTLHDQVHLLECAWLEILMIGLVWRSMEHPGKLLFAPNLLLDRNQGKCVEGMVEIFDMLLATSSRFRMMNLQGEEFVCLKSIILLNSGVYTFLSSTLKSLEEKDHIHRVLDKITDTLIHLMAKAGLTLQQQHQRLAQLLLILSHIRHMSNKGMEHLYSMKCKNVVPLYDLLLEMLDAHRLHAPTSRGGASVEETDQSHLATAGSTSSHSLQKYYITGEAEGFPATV
Description: Transient transfection luciferase reporter, ERα transactivation in COS-7 cells. It counts as cell-based. Conditions: TSA 3 μM, COS-7 cells. Here is the method: (§1) All cell lines were cultured under the recommended conditions. COS-7 cells grown in […] in DMEM without phenol red, supplemented with 10% FBS were transfected in medium without serum with lipofectamine 2000 (Invitrogen, Burlington, Ont.) with 100 ng of nuclear receptor expression vectors as indicated, 200 ng of TIF-2 or TIF-2.1, as indicated, 250 ng of reporter plasmid, 250 ng of infemal control vector pCMV-βgal, and various concentrations of LCoR/pSG5 or LCoR-LSKAA/pSG5 expression vectors and pSG5 carrier. Medium was replaced 24 h after transfection by a medium containing charcoal-stripped serum and ligand (100 nM) and TSA (3 μM) for 18 h, as indicated. Cells were harvested in 200 […] of reporter lysis buffer (Promega).
(§2) COS-7 cells were cotransfected with expression vectors for ERα HEG0 (A and C) or GR (D) or PR (F) or VDR (H), ERE3-TATA-pXP2 (A and C), GRE5/pXP2 (D and F) or VDRE3tk/pXP2 (H) luciferase reporter vectors, pCMV-β-gal as internal control, and LCoR/pSG5 or LSKAA/pSG5 expression vectors as indicated. Cells were treated with 10^−7M of hormones (solid bars) or vehicle (open bars). Normalized luciferase activities (RLU) are the means±SEM from at least 3 experiments. […] Cells were transfected as in FIG. 5A with LCoR, TIF-2 or TIF2.1 as indicated. […]

The target of test [2] is T2, VDR (Homo sapiens, UniProt P11473).
T2 construct: expressed in transfected cells; host or cells: COS-7
T2 sequence (P11473 1-427): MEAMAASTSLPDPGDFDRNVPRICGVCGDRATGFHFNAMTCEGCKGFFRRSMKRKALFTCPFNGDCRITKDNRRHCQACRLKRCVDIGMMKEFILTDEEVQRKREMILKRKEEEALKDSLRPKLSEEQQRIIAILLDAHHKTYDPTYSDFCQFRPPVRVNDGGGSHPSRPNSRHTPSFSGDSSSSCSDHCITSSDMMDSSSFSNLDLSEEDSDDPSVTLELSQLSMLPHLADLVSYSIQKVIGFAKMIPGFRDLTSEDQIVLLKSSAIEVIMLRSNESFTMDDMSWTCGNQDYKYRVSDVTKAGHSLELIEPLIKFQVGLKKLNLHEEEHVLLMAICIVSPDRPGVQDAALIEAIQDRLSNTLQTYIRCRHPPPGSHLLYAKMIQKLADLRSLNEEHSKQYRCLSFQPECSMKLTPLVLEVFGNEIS
In words: Transient transfection luciferase reporter, VDR transactivation in COS-7 cells. It counts as cell-based. Conditions: TSA 3 μM, COS-7 cells. The protocol: as §1, §2

For test [3], the system named is HDAC6. In words: ERα-dependent CAT reporter with LCoR and HDAC6 cotransfection in MCF-7 cells. It counts as cell-based, human. Conditions: estradiol 10 nM, TSA 500 nM, trapoxin 50 nM. Here is the method: All cells were cultured under the recommended conditions. For immunocytochemistry, COS-7 cells grown on collagen IV-treated microscope slides in 6-well plates in DMEM, supplemented with 10% FBS were transfected in medium without serum with 12.5 μl of lipofectamine 2000 (Invitrogen, Burlington, Ont.) containing 1 μg each of pSG5/LCoR and HA-Flag-HDAC6/pcDNA3. Medium was replaced 24 h after transfection and cells were prepared for immunocytochemistry after 48 h as described below. For immunoprecipitation of tagged proteins, MCF-7 cells in 100 mm dishes were transfected with 10 μl of lipofectamine containing 10 μg of pSG5 vectors containing Flag-LCoR, Flag-m1, Flag-m2 or Flag-m1+2. For analysis of the effects of HDACs 3 or 6 on LCoR corepression, COS-7 cells (60-70% confluent) grown in DMEM without phenol red, supplemented with 10% FBS on 6-well plates were transfected in medium without serum with lipofectamine 2000 (Invitrogen, Burlington, Ontario, Canada) with 100 ng of ERα expression vectors as indicated, 300 ng of LCoR/pSG5, 300 ng of HA-HDAC3/pCDNA3.1 or […], 250 ng of ERE3-TATA-CAT reporter plasmid, 250 ng of internal control vector pCMV-βgal, and pBluescript carrier DNA to 4 μg. Medium was replaced 18 hr after transfection by a medium containing charcoal-stripped serum and ligand (10 nM) for 30 hr, as indicated. […]

Turning to `CC(/C=C/C(=O)NO)=C\[C@@H](C)C(=O)c1ccc(N(C)C)cc1` [TSA, trichostatin A], in test [1], the “effect on LCoR-dependent repression of ERα function” value is on record as “completely abolished”. The “effect on LCoR repression of VDR function” value in test [2] is “little or no effect”. For the same molecule, the “effect on HDAC6 repression / enhancement of LCoR corepression of ERα transactivation” value in test [3] is on record as “abolished”.

Source of the values: US20070054353A1, “Nuclear receptor transcriptional corepressor and uses thereof” (priority 2002, published 2007).
